In patent US20250205265A1, “ASPERULOSIDE AS AN AGENT FOR IMPROVING VASCULAR AND METABOLIC FUNCTION IN OBESITY: ROLE OF NRF2 ACTIVATION” (The Chinese University of Hong Kong, priority 2023, published 2025):

Key:
Nrf2 = Nrf2 nuclear translocation in endothelial cells; type: cell-based; details: ML385 co-treatment; immunofluorescence and western blotting
Method: After induction of obesity in C57BL/6 male mice fed with high fat diet for twelve weeks, they were treated daily with ASP (50 mg/kg) via oral gavage for seven weeks in vivo study. C57BL/6 mice aortae were used for ex vivo study and endothelial cells were used for in vitro study. Vascular function was determined by wire myograph. DHE and MitoSOX staining were used to detect ROS levels. QPCR, aortic en-face immunofluorescence staining, and Western blotting were used to analyze mRNA and protein expressions. Small interfering (si)RNA of Nrf2 and HO-1, inhibitors of Nrf2 (ML385, Cat. No.: HY-100523) and HO-1 (OB-24, HY-118487) were used to elucidate the mechanistic pathway of ASP's action.
(§1) After induction of obesity in C57BL/6 male mice fed with the high-fat diet for twelve weeks, they were treated daily with ASP (50 mg/kg) via oral gavage for seven weeks in vivo study. C57BL/6 mice aortae were used for ex vivo studies. Endothelial cells, HepG2 and primary adipocytes were used for in vitro studies. Vascular function was determined by wire myograph. H&E staining was employed for histological examination. Oil Red O staining was used to determine lipid droplets in tissues and cells. DHE and MitoSOX staining were used to detect ROS levels. QPCR, aortic en-face immunofluorescence staining, and Western blotting were used to analyze mRNA and protein expressions. ARE binding activity was determined by Dual luciferase reporter assay. Small interfering (si)RNA of Nrf2 and HO-1, inhibitors of Nrf2 (ML385, Cat. No.: HY-100523) and HO-1 (OB-24, HY-118487) were used to elucidate the mechanistic pathway of ASP's action.

[1] = tested on: Nrf2/antioxidant responsive element (ARE); test: ARE binding activity, luciferase reporter assay in endothelial cells; type: cell-based; details: luciferase reporter assay
Method: as §1

Cc1ccccc1C(=O)N1CCc2cc(-c3nc(NC(=O)Cc4ccc5c(c4)OCO5)sc3C)ccc21 [ML385, reference compound] was tested, and the “effect on Nrf2 nuclear translocation stimulated by ASP” value (Nrf2) was “blocks Nrf2 nuclear translocation stimulated by ASP” and the “effect on activation of ARE binding by ASP” value [1] was “attenuates the activation of ARE binding by ASP”.
